{
  "source": "paper PMC314469",
  "about": "“Protein Interaction Networks by Proteome Peptide Scanning” (PLoS Biology, 2004)",
  "data": [
    {"tested_on": "Myo5 SH3 domain", "experiment": "SPOT analysis of cellulose-bound peptides (WISE), Myo5 SH3 domain (Dataset S4)", "format": "binding, Saccharomyces cerevisiae", "conditions": "SPOT analysis of cellulose-bound 14-mer yeast proteome peptides, Myo5 SH3 domain; normalized value; mean where the peptide was synthesized more than once", "units": {"The normalized value in BLU units": "BLU"}, "values": [
      {"sequence": "LIWHKNKPTKPDNK", "The normalized value in BLU units": 300.3},
      {"sequence": "LLAEHNGPKLPHIP", "The normalized value in BLU units": 198.5},
      {"sequence": "LLAKLPLPRDPRVA", "The normalized value in BLU units": 343.8},
      {"sequence": "LLQSLRLPTTPTER", "The normalized value in BLU units": 124.6},
      {"sequence": "LLYLMTYPQQPMVK", "The normalized value in BLU units": 161.7},
      {"sequence": "LPAVFSAPIRPDIV", "The normalized value in BLU units": 201.8},
      {"sequence": "LPKLKSNPSVPHLH", "The normalized value in BLU units": 193.1},
      {"sequence": "LPQQHLSPLIPIAI", "The normalized value in BLU units": 45.3},
      {"sequence": "LPTALLSPLRPSLC", "The normalized value in BLU units": 115.0},
      {"sequence": "LQYHKKNPYSPLFS", "The normalized value in BLU units": 317.8},
      {"sequence": "LSGTRLVPNCPLLW", "The normalized value in BLU units": 431.8},
      {"sequence": "LTSVKIVPQRPISD", "The normalized value in BLU units": 89.0},
      {"sequence": "LVPSKAIPPLPQLD", "The normalized value in BLU units": 558.2},
      {"sequence": "LWRPRIVPILPYIT", "The normalized value in BLU units": 1051.3},
      {"sequence": "LYREREEPPLPKRI", "The normalized value in BLU units": 112.3},
      {"sequence": "MAEFRRVPLPPMAE", "The normalized value in BLU units": 442.6},
      {"sequence": "MASFLPVPEKPNLI", "The normalized value in BLU units": 161.0},
      {"sequence": "MEEPFIWPEEPRPD", "The normalized value in BLU units": 79.7},
      {"sequence": "MFNLLQKPEQPHQN", "The normalized value in BLU units": 204.0}
    ]},
    {"tested_on": "Myo5 SH3 domain", "experiment": "SPOT analysis of cellulose-bound peptides (WISE), Myo5 SH3 domain (Dataset S4)", "format": "binding, Saccharomyces cerevisiae", "conditions": "SPOT analysis of cellulose-bound peptides probed with Myo5 SH3 domain; normalized value", "units": {"The normalized value in BLU units (SPOT analysis, Myo5 SH3)": "BLU"}, "values": [
      {"sequence": "LELLLSLPTGPESK", "The normalized value in BLU units (SPOT analysis, Myo5 SH3)": 142.9},
      {"sequence": "LFKRLPVPAPPMDS", "The normalized value in BLU units (SPOT analysis, Myo5 SH3)": 145.1},
      {"sequence": "LLISHLFPTNPEFS", "The normalized value in BLU units (SPOT analysis, Myo5 SH3)": 413.9},
      {"sequence": "LLKGYIPPYKPIVK", "The normalized value in BLU units (SPOT analysis, Myo5 SH3)": 168.7},
      {"sequence": "LLLPLLLPPLPSVK", "The normalized value in BLU units (SPOT analysis, Myo5 SH3)": 6465.7},
      {"sequence": "LPAPPPPPRRGPA", "The normalized value in BLU units (SPOT analysis, Myo5 SH3)": 43350},
      {"sequence": "LPEELMRPKVPELL", "The normalized value in BLU units (SPOT analysis, Myo5 SH3)": 145.4},
      {"sequence": "LPFMYLLPRFPSHI", "The normalized value in BLU units (SPOT analysis, Myo5 SH3)": 454.8},
      {"sequence": "LPTGYYEPMKPSSL", "The normalized value in BLU units (SPOT analysis, Myo5 SH3)": 164.9},
      {"sequence": "LWILYMSPDVPSAS", "The normalized value in BLU units (SPOT analysis, Myo5 SH3)": 252.6},
      {"sequence": "LWKPLVYPTCPSEH", "The normalized value in BLU units (SPOT analysis, Myo5 SH3)": 185.3},
      {"sequence": "MAKSFADPRVPQPM", "The normalized value in BLU units (SPOT analysis, Myo5 SH3)": 172.2},
      {"sequence": "MANILYYPQKPLGT", "The normalized value in BLU units (SPOT analysis, Myo5 SH3)": 152.5},
      {"sequence": "MASGLLPPIQPGFD", "The normalized value in BLU units (SPOT analysis, Myo5 SH3)": 223.0},
      {"sequence": "MFELLCHPKVPVGM", "The normalized value in BLU units (SPOT analysis, Myo5 SH3)": 267.7},
      {"sequence": "MFTYFQEPPFPDLL", "The normalized value in BLU units (SPOT analysis, Myo5 SH3)": 239.3}
    ]},
    {"tested_on": "Myo5 SH3 domain", "experiment": "SPOT analysis of cellulose-bound peptides (WISE), Myo5 SH3 domain (Dataset S4)", "format": "binding, Saccharomyces cerevisiae", "conditions": "SPOT analysis of membrane-bound peptides, Myo5 SH3 domain; normalized value (see methods)", "units": {"The normalized value in BLU units": "BLU"}, "values": [
      {"sequence": "LFGIRNNPFIPITG", "The normalized value in BLU units": 169.8},
      {"sequence": "LGLHKWLPDIPLFE", "The normalized value in BLU units": 167.8},
      {"sequence": "LGPLKYAPHLPFSK", "The normalized value in BLU units": 427.6},
      {"sequence": "LIWHKSKPVKPTNK", "The normalized value in BLU units": 353.6},
      {"sequence": "LKDPKSFPPPPLKP", "The normalized value in BLU units": 252.9},
      {"sequence": "LKKQKAIPSSPCGM", "The normalized value in BLU units": 306.9},
      {"sequence": "LLVTKERPRFPEDD", "The normalized value in BLU units": 33.7},
      {"sequence": "LNATKISPSAPSKD", "The normalized value in BLU units": 114.4},
      {"sequence": "LNGLKSSPADPHLS", "The normalized value in BLU units": 152.9},
      {"sequence": "LNKTKLLPQSPILN", "The normalized value in BLU units": 117.8},
      {"sequence": "LNLSKDAPVPPAPE", "The normalized value in BLU units": 161.0},
      {"sequence": "LNRKKVTPQLPKVT", "The normalized value in BLU units": 499.8},
      {"sequence": "LPEKKNSPTTPSVF", "The normalized value in BLU units": 102.5},
      {"sequence": "LPEPRFYPLSPKNN", "The normalized value in BLU units": 289.3},
      {"sequence": "LSKVRGRPMYPRPA", "The normalized value in BLU units": 752.4},
      {"sequence": "LSYLKDLPFVPFLF", "The normalized value in BLU units": 213.0},
      {"sequence": "LTIFKRPPKQPGHQ", "The normalized value in BLU units": 702.9},
      {"sequence": "LTLTKWDPSKPISL", "The normalized value in BLU units": 231.0},
      {"sequence": "LTSFKGRPKPPKTL", "The normalized value in BLU units": 327.7},
      {"sequence": "LVGLKYEPLFPYFA", "The normalized value in BLU units": 124.8},
      {"sequence": "LVGMRSFPLYPSGL", "The normalized value in BLU units": 385.7},
      {"sequence": "MDGIKELPEFPIKK", "The normalized value in BLU units": 138.4},
      {"sequence": "MDMDRNVPLAPNLN", "The normalized value in BLU units": 91.4}
    ]},
    {"tested_on": "Myo5 SH3 domain", "experiment": "SPOT analysis of cellulose-bound peptides (WISE), Myo5 SH3 domain (Dataset S4)", "format": "binding, Saccharomyces cerevisiae", "conditions": "SPOT analysis of membrane-synthesized peptides probed with Myo5 SH3 domain; normalized value", "units": {"The normalized value in BLU units (SPOT analysis, Myo5 SH3)": "BLU"}, "values": [
      {"sequence": "LFDEKVKPQIPQLR", "The normalized value in BLU units (SPOT analysis, Myo5 SH3)": 89.2},
      {"sequence": "LGSEKSCPLAPAVA", "The normalized value in BLU units (SPOT analysis, Myo5 SH3)": 121.9},
      {"sequence": "LIDFKDYPDVPKVP", "The normalized value in BLU units (SPOT analysis, Myo5 SH3)": 153.6},
      {"sequence": "LITDKEYPVRPAYT", "The normalized value in BLU units (SPOT analysis, Myo5 SH3)": 136.3},
      {"sequence": "LIWHKNKPTEPDNK", "The normalized value in BLU units (SPOT analysis, Myo5 SH3)": 155.4},
      {"sequence": "LKDNRLLPSWPKRG", "The normalized value in BLU units (SPOT analysis, Myo5 SH3)": 518.0},
      {"sequence": "LKHTKNKPKNPDTA", "The normalized value in BLU units (SPOT analysis, Myo5 SH3)": 406.0},
      {"sequence": "LLEERNNPDIPVDK", "The normalized value in BLU units (SPOT analysis, Myo5 SH3)": 311.9},
      {"sequence": "LLPTKLIPSIPGGK", "The normalized value in BLU units (SPOT analysis, Myo5 SH3)": 172.0},
      {"sequence": "LMSLKRFPQLPSNT", "The normalized value in BLU units (SPOT analysis, Myo5 SH3)": 347.7},
      {"sequence": "LNFKRLLPRDPSEK", "The normalized value in BLU units (SPOT analysis, Myo5 SH3)": 553.7},
      {"sequence": "LNFPKNIPTIPFYV", "The normalized value in BLU units (SPOT analysis, Myo5 SH3)": 255.7},
      {"sequence": "LNPNRRAPRRPLST", "The normalized value in BLU units (SPOT analysis, Myo5 SH3)": 8004.0},
      {"sequence": "LNQSKGQPFQPSPT", "The normalized value in BLU units (SPOT analysis, Myo5 SH3)": 254.7},
      {"sequence": "LNRQKNYPDAPAIF", "The normalized value in BLU units (SPOT analysis, Myo5 SH3)": 86.4},
      {"sequence": "LNTMKKRPAPPSLP", "The normalized value in BLU units (SPOT analysis, Myo5 SH3)": 22346.5},
      {"sequence": "LPFPRKNPKLPENT", "The normalized value in BLU units (SPOT analysis, Myo5 SH3)": 147.2},
      {"sequence": "LPLPKLRPPRPTFA", "The normalized value in BLU units (SPOT analysis, Myo5 SH3)": 77883.2},
      {"sequence": "LPLSRVQPVQPSQT", "The normalized value in BLU units (SPOT analysis, Myo5 SH3)": 122.5},
      {"sequence": "LQESKTVPQSPKKP", "The normalized value in BLU units (SPOT analysis, Myo5 SH3)": 159.2},
      {"sequence": "LQNAKNDPLPPVIE", "The normalized value in BLU units (SPOT analysis, Myo5 SH3)": 58.8},
      {"sequence": "LQQRRYYPIFPGSI", "The normalized value in BLU units (SPOT analysis, Myo5 SH3)": 278.7},
      {"sequence": "LRISKPDPECPSKL", "The normalized value in BLU units (SPOT analysis, Myo5 SH3)": 246.3},
      {"sequence": "LSFDRPPPLTPEKN", "The normalized value in BLU units (SPOT analysis, Myo5 SH3)": 174.4},
      {"sequence": "LSKLRLSPENPSNT", "The normalized value in BLU units (SPOT analysis, Myo5 SH3)": 157.2},
      {"sequence": "LSPAKARPSFPHND", "The normalized value in BLU units (SPOT analysis, Myo5 SH3)": 212.8},
      {"sequence": "LSRSKPLPLTPNSK", "The normalized value in BLU units (SPOT analysis, Myo5 SH3)": 323.9},
      {"sequence": "LTKIRRRPQQPLTD", "The normalized value in BLU units (SPOT analysis, Myo5 SH3)": 393.3},
      {"sequence": "MAFIKILPNNPWPF", "The normalized value in BLU units (SPOT analysis, Myo5 SH3)": 59.9},
      {"sequence": "MDKFRIPPKSPNIE", "The normalized value in BLU units (SPOT analysis, Myo5 SH3)": 222.0}
    ]}
  ]
}
